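Following 48 hours of exposure in 96-well plates, responses at five concentrations were used to interpolate endpoints linearly. At the GI50, growth is halved. TGI: total growth inhibition.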
Assays:
Assay in all cases: NCI anticancer screen, dose series, 48 h
[1] = system: OVCAR-5 ovarian
[2] = system: T-47D breast
[3] = system: HT29 colon
[4] = system: KM12 colon
[5] = system: UACC-257 melanoma
[6] = system: NCI/ADR-RES ovarian
[7] = system: A498 renal
[8] = system: SNB-75 CNS
[9] = system: LXFL 529 NSCLC
[10] = system: KM20L2 colon
[11] = system: M19-MEL melanoma

Structure (SMILES) | GI50 [1] [µM] | TGI [1] [µM] | GI50 [2] [µM] | TGI [2] [µM] | GI50 [3] [µM] | TGI [3] [µM] | GI50 [4] [µM] | TGI [4] [µM] | GI50 [5] [µM] | TGI [5] [µM] | GI50 [6] [µM] | TGI [6] [µM] | GI50 [7] [µM] | TGI [7] [µM] | GI50 [8] [µM] | TGI [8] [µM] | TGI [9] [µM] | TGI [10] [µM] | TGI [11] [µM]
CCOC(=O)c1c(C)n2c(=O)cc(C)c3c(O)c(O)cc1c32 | 43.8 | > 100 | 9.26 | > 100 | 24.5 | > 100 | 4.13 | 42.2 | 2.7 | 7.65 | 28.3 | 89.4 | 27.4 | > 100 | 35.6 | > 100 |  |  | 
COc1cc(-c2nc3ccccc3s2)ccc1NC(=O)COc1ccc(Cl)cc1 | 13.4 | > 100 | 4.42 | > 100 | 3.66 | > 100 | 3.91 | > 100 | 13.5 | > 100 | 3.22 | 27.6 | 44.5 | > 100 | 42.9 | > 100 |  |  | 
O=C1c2nsnc2C(=O)c2c(F)c(F)c(F)c(F)c21 | 1.93 | 3.47 | 0.473 | 2.37 | 0.266 | 0.715 | 1.4 | 3.29 | 1.61 | 3 | 1.63 | 4.33 | 1.6 | 3.57 | 1.02 | 2.21 |  |  | 
Cc1cc(O)ccc1C1=NN(c2ccc(S(C)(=O)=O)cc2)C(=O)CC1 | 53.8 | > 100 | 20.2 | > 100 | 3.7 | 32.3 | 4.22 | > 100 | 5.65 | > 100 | 3.26 | > 100 | 2.78 | 45.4 | 5.53 | 75.2 |  |  | 
CNC(=O)OCc1c2ccncc2c(C)c2c1[nH]c1ccccc12 |  | 1.78 |  | 9.61 |  | 1.59 |  | 5.19 |  | 2.05 |  | 2.3 |  | 0.673 |  | 1.17 |  |  | 
Clc1cccc(Cl)c1C1CSc2ccccc2N=C1c1ccccc1 (stereo not given) | 3.88 | 13.2 | 8.39 | 34.5 | 3.17 | 8.64 | 2.15 | 4.69 | 13.5 | 27 | 4.14 | 32 | 13.1 | 26.6 | 2.53 | 17.2 |  |  | 
Clc1ccc2c(c1)N(CCCN1CCCC1)c1ccccc1S2 | 12.7 | 28.3 | 12.4 | 28.5 | 3.71 | 12.9 | 5.14 | 18.7 | 11.4 | 23.8 | 5.34 | 18.8 | 2.2 | 10.2 | 3.4 | 16.4 |  |  | 
COc1ccc2c(CN3CCC(C(=O)O)CC3)cc3cc4c(cc3c2c1)OCO4 | 2.55 | 6.87 | 3.62 | 17.7 | 2.33 | 13.8 | 2.52 | 10.4 | 1.85 | 3.54 | 2.35 | 6.99 | 1.79 | 3.33 | 2.41 | 9.03 |  |  | 
Nc1nc2c(s1)CCc1c-2c(Br)n(Cc2ccccc2)c1Br | 19.8 | 39.3 | 3.17 | 10.6 | 10.9 | 27.7 | 14 | 33.3 | 12.1 | 25.6 | 23.7 | 87.7 | 17.3 | 33.8 | 14.5 | 33.1 |  |  | 
O=C1C(=O)c2c(nc3ccc(Br)cn23)-c2ccccc21 | 1.78 | 3.25 | 1.44 | 3.89 | 2.44 | 6.12 | 1.55 | 3.19 | 0.747 | 2.09 | 0.699 | 3.87 | 1.51 | 2.87 | 0.738 | 2.37 |  |  | 
NC(=O)c1ccc(NN=O)nc1 |  | > 100 |  | > 100 |  | > 100 |  | > 100 |  | > 100 |  | > 100 |  | > 100 |  | > 100 |  |  | 
N#Cc1ccccc1NC(=O)C(=O)c1c(O)c2ccccc2oc1=O |  | > 100 |  | > 100 |  | > 100 |  | > 100 |  | > 100 |  | > 100 |  | > 100 |  | > 100 |  |  | 
CCN1C(=O)N(CC)C2Nn3c(s/c(=C\c4ccccc4Br)c3=O)=NC21 (stereo not given) | 2.01 | > 100 | 13.2 | > 100 | 0.558 | 5.73 | 0.501 | 6.13 | 12.9 | > 100 | 1.74 | 43.7 | 0.886 | 4.08 | 0.797 | 8.3 |  |  | 
COc1ccc2cc(-c3cc4c(oc3=O)-c3ccccc3OC4O)c(=O)oc2c1 (stereo not given) | 17.3 | 31.3 | 13 | 33.6 | 17.1 | 31.5 | 18.2 | 34.9 | 16.2 | 32.3 | 17.7 | 31.7 | 17.3 | 33.5 | 5.73 | 23.4 |  |  | 
Cl.Fc1c[c-]c(-c2ccccn2)c(F)c1.[Pt].c1ccc(P(c2ccccc2)C([PH+](c2ccccc2)c2ccccc2)[PH+](c2ccccc2)c2ccccc2)cc1 | 2.97 | > 100 | 2.25 | 8.5 | 3.23 | 21.6 | 3.55 | 14.7 | 2.75 | 8.09 | 34.9 | > 100 | 2.59 | 7.47 | 2.01 | 9.5 |  |  | 
COC(=O)/C(=N\Nc1nc(=S)[nH]n1N)C(C#N)c1ccccc1 (stereo not given) |  | > 100 |  |  |  | > 100 |  | > 100 |  | > 100 |  |  |  | > 100 |  | > 100 | > 100 | > 100 | > 100

Reference: PubChem BioAssay (NCI)
